This is an account of results in patent US20250283073A1 (ORNA THERAPEUTICS, INC., priority 2021, published 2025).

For assay [1], the system named is primary human hepatocytes (PHHs). Kind of assay: IRES screening (Table 28), Gaussia luciferase LNP-oRNA in primary human hepatocytes (PHHs). The settings on record: protein expression relative to positive control (SEQ ID NO 3282 = 1).
From the text: (§1) Exemplary constructs included a 5′ enhanced intron element, a 5′ enhanced exon element, a putative IRES, a coding element encoding Gaussia Luciferase, a 3′ enhanced exon element, and a 3′ enhanced intron element.
(§2) Purified oRNA was nanoprecipitated with lipids to form LNP-oRNA constructs. LNPs were formulated first by creating empty lipid nanoparticles using a Precision Nanosystems Ignite instrument with a “NextGen” mixing chamber. Ethanol phase contained Lipid 39 from Table 10b, DSPC, cholesterol, and DMG-PEG 2000 (Avanti Polar Lipids, Inc., Alabaster, AL) at a molar ratio of 45:9:44:2 was combined with 50 mM sodium acetate buffer at pH 4.5. A 3:1 aqueous to ethanol mixing ratio was used. The empty LNPs were then dialyzed in 1 L of 1×PBS and exchanged 2 times over 18 hours. […] A 3:1 aqueous to empty lipid nanoparticle mixing ratio was used. The LNPs final ionizable lipid to RNA phosphate ratio was at 6.0.
(§3) Primary human skeletal myotubes (MYOs), primary human hepatocytes (PHHs), and activated primary human T cells (TCLs) were treated with formulated LNP-oRNA in triplicate. Protein expression in supernatant was assessed by luminescence measurements 48 hours following transfection.
(§4) Total luminescent signal was normalized across replicate plates to control for plate-wide differences between replicates due to flash assay readout timing. Plates with positive controls having <2× signal over background were excluded from analysis. Background was subtracted based on empty wells. Each test well replicate was normalized to its respective plate control and then the replicates were averaged.
(§5) Measured numbers are normalized to a control (caprine kobuvirus IRES, SEQ ID NO: 3282) and represented as a fold change.
Assay [2] relates to activated primary human T cells (TCLs). Kind of assay: IRES screening (Table 28), Gaussia luciferase LNP-oRNA in activated primary human T cells (TCLs). The settings on record: protein expression relative to positive control (SEQ ID NO 3282 = 1).
From the text: as §1, §2, §3, §4, §5
Assay [3] concerns primary human skeletal myotubes (MYOs). Kind of assay: IRES screening (Table 28), Gaussia luciferase LNP-oRNA in primary human skeletal myotubes (MYOs). The settings on record: protein expression relative to positive control (SEQ ID NO 3282 = 1).
From the text: as §1, §2, §3, §4, §5
A further assay deals with splenic immune cells. Kind of assay: Cre circRNA LNP transfection of splenic immune cells in Ai9 Cre reporter mice (tdTomato). It counts as in vivo. The settings on record: 0.5 mg/kg Cre circRNA LNP i.v., 48 hr, named by ionizable lipid, 0.5 mg/kg. As to the method: Circular RNAs encoding Cre recombinase (Cre) are encapsulated into lipid nanoparticles as previously described. Female, 6-8 week old B6.Cg-Gt(ROSA)26Sortm9(CAG-tdTomato)Hze/J (Ai9) mice were dosed with lipid nanoparticles at 0.5 mg/kg RNA intravenously. Fluorescent tdTomato protein was transcribed and translated in Ai9 mice upon Cre recombination, meaning circular RNAs have been delivered to and translated in tdTomato+ cells. After 48 hr, mice were euthanized and the spleens were harvested, processed into a single cell suspension, and stained with various fluorophore-conjugated antibodies for immunophenotyping via flow cytometry.
Ai9 mice (B6.Cg-Gt(ROSA)26Sortm9(CAG-tdTomato)Hze/J, female, 6-8 weeks, n=3 per group) were injected i.v. with 0.5 mg/kg Cre circRNA LNPs or PBS. Ai9 mice transcribe and translate the fluorescent reporter tdTomato upon Cre recombination; meaning cells which are tdTomato+ have successfully been transfected with Cre circRNA. […] Flow cytometry was performed using an Attune Nxt Flow Cytometer (Thermo).

“Also recorded” adds a separate entry of the source.

With `CCCCCCCCC(CCCCCC)C(=O)OCCCCCCCCCN(CCCCO)CCCCCCCCCOC(=O)C(CCCCCC)CCCCCCCC` (centres unmarked) [Lipid 22], the “PHH AVG [Fold Change]” value in assay [1] worked out at 0.0926 Fold Change. For the same molecule, the “TCL AVG [Fold Change]” value in assay [2] was found to be 0.0309 Fold Change. In assay [3], the “MYO AVG [Fold Change]” value came out at 0.009137 Fold Change.
As for `CCCCCCCCC(CCCCCC)C(=O)OCCCCCCN(CCCCCCOC(=O)C(CCCCCC)CCCCCCCC)CCCOC` (centres unmarked) [Lipid 41], in assay [1], the “PHH AVG [Fold Change]” value is given as 0.01033 Fold Change. Moreover, in assay [2], the “TCL AVG [Fold Change]” value is 0.02752 Fold Change. Further, the “MYO AVG [Fold Change]” value in assay [3] turned out to be 0.0004126 Fold Change.
For `CCCCCCC(CCCC)C(=O)OCCCCCCN(CCCO)CCCCCCOC(=O)C(CCCC)CCCCCC` (centres unmarked) [Lipid 28] the same measures were 0.1221 Fold Change, 0.1126 Fold Change and 0.01764 Fold Change.
For `CCCCCCCCC(CCCCCC)C(=O)OCCCCCCN(CCCCCCOC(=O)C(CCCCCC)CCCCCCCC)CC(O)CC` (centres unmarked) [Lipid 40], the “PHH AVG [Fold Change]” value in assay [1] is recorded as 0.2391 Fold Change. Moreover, in assay [2], the “TCL AVG [Fold Change]” value was 0.05108 Fold Change. Also, the “MYO AVG [Fold Change]” value in assay [3] was determined as 0.199 Fold Change.
The matching figures for `CCCCCCCCC(CCCCCC)COC(=O)CCCCCN(CCCCCC(=O)OCC(CCCCCC)CCCCCCCC)CCCC(=O)OCC` (centres unmarked) [Lipid 39]: 0.003901 Fold Change, 0.003256 Fold Change and 0.0002919 Fold Change.
Take `CCCCCCCCC(CCCCCC)C(=O)OCCCCCCN(CCCCCCOC(=O)C(CCCCCC)CCCCCCCC)CCCn1ccnc1` (centres unmarked) [Lipid 10a-26]: the “splenic immune cells expressing tdTomato” value in the assay with splenic immune cells was “significantly higher myeloid and T cell transfection compared with Lipid 93-S14; also recorded: effective at delivering circular RNAs to many splenic immune cell subsets”.
`CCCCCCCCC(CCCCCC)C(=O)OCCCCCCN(CCCCCCOC(=O)C(CCCCCC)CCCCCCCC)CC(O)CO` (centres unmarked) [Lipid 30]: the “PHH AVG [Fold Change]” value in assay [1] amounted to 0.3984 Fold Change. Moreover, in assay [2], the “TCL AVG [Fold Change]” value is 0.373 Fold Change. The “MYO AVG [Fold Change]” value in assay [3] was 0.1967 Fold Change.
Turning to `CCCCCCCCC(CCCCCC)C(=O)OCCCCCCN(CCC#N)CCCCCCOC(=O)C(CCCCCC)CCCCCCCC` (centres unmarked) [Lipid 47], the “PHH AVG [Fold Change]” value in assay [1] is listed as 0.08942 Fold Change. Also, in assay [2], the “TCL AVG [Fold Change]” value is 0.02259 Fold Change. Also, the “MYO AVG [Fold Change]” value in assay [3] was found to be 0.00246 Fold Change.
For `CCCCCCCCC(CCCCCC)COC(=O)CCCCCCCN(CCO)CCCCCCCC(=O)OCC(CCCCCC)CCCCCCCC` (centres unmarked) [Lipid 46] the same measures were 0.503 Fold Change, 0.2472 Fold Change and 0.2249 Fold Change.
Regarding `CCCCCCCCC(CCCCCC)C(=O)OCCCCCCN(CCCCCCOC(=O)C(CCCCCC)CCCCCCCC)CCCC(=O)OCC` (centres unmarked) [Lipid 48], the “PHH AVG [Fold Change]” value in assay [1] was determined as 0.4247 Fold Change. Besides, the “TCL AVG [Fold Change]” value in assay [2] was 0.002803 Fold Change. Also, the “MYO AVG [Fold Change]” value in assay [3] is on record as 0.1303 Fold Change.
For `CCCCC(CC)C(=O)OCCCCCCCCCN(CCCO)CCCCCCCCCOC(=O)C(CC)CCCC` (centres unmarked) [Lipid 43], the “PHH AVG [Fold Change]” value in assay [1] worked out at 0.456 Fold Change. Further, the “TCL AVG [Fold Change]” value in assay [2] is recorded as 0.2866 Fold Change. Further, in assay [3], the “MYO AVG [Fold Change]” value came to 0.11 Fold Change.
On to `CCCCCCCCCCCCC(CCCCCCCCCC)C(=O)OCCCCCCN(CCCCO)CCCCCCOC(=O)C(CCCCCCCCCC)CCCCCCCCCCCC` (centres unmarked) [Lipid 27], for which the “PHH AVG [Fold Change]” value in assay [1] is recorded as 0.09892 Fold Change. In addition, the “TCL AVG [Fold Change]” value in assay [2] worked out at 0.02442 Fold Change. The “MYO AVG [Fold Change]” value in assay [3] turned out to be 0.01866 Fold Change.
With `CCCCCCCCC(CCCCCC)C(=O)OCCCCCCN(CCCC#N)CCCCCCOC(=O)C(CCCCCC)CCCCCCCC` (centres unmarked) [Lipid 35], the “PHH AVG [Fold Change]” value in assay [1] came to 0.005378 Fold Change. Besides, the “TCL AVG [Fold Change]” value in assay [2] is 0.004133 Fold Change. In addition, the “MYO AVG [Fold Change]” value in assay [3] was 0 Fold Change.
For `CCCCCCCCC(CCCCCC)COC(=O)CCCCCCCCCN(CCCCO)CCCCCCCCCC(=O)OCC(CCCCCC)CCCCCCCC` (centres unmarked) [Lipid 21] the same measures were 0.1363 Fold Change, 0.0748 Fold Change and 0.02126 Fold Change.
For `CCCCCCC(CCCC)C(=O)OCCCCCCN(CCCCO)CCCCCCOC(=O)C(CCCC)CCCCCC` (centres unmarked) [Lipid 42], the “PHH AVG [Fold Change]” value in assay [1] is on record as 0.3425 Fold Change. Also, the “TCL AVG [Fold Change]” value in assay [2] worked out at 0.09322 Fold Change. Further, in assay [3], the “MYO AVG [Fold Change]” value came out at 0.07198 Fold Change.
For `CCCCCCCCCCCCCCCC(O)C(CO)N(CCCCCCOC(=O)C(CCCCCC)CCCCCCCC)CCCCCCOC(=O)C(CCCCCC)CCCCCCCC` (centres unmarked) [Lipid 32] the same measures were 0.3276 Fold Change, 0.02974 Fold Change and 0.2163 Fold Change.
For the molecule `CCCCCCC(CCCC)C(=O)OCCCCCCCCCN(CCCCO)CCCCCCCCCOC(=O)C(CCCC)CCCCCC` (centres unmarked) [Lipid 25], the “PHH AVG [Fold Change]” value in assay [1] is listed as 0.1559 Fold Change. Further, the “TCL AVG [Fold Change]” value in assay [2] is 0.452 Fold Change. In assay [3], the “MYO AVG [Fold Change]” value amounted to 0.0738 Fold Change.
For `CCCCCCCCC(CCCCCC)C(=O)OCCCCCCN(CCCCCCOC(=O)C(CCCCCC)CCCCCCCC)CCCCNC(C)=O` (centres unmarked) [Lipid 36] the same measures were 0 Fold Change, 0.0009344 Fold Change and 0 Fold Change.
On to `CCCCCCCCC(CCCCCC)C(=O)OCCCCCCCCCCCCN(CCCCO)CCCCCCCCCCCCOC(=O)C(CCCCCC)CCCCCCCC` (centres unmarked) [Lipid 23], for which, in assay [1], the “PHH AVG [Fold Change]” value is 0.0008387 Fold Change. The “TCL AVG [Fold Change]” value in assay [2] amounted to 0.002417 Fold Change. In addition, in assay [3], the “MYO AVG [Fold Change]” value was determined as 0 Fold Change.
The matching figures for `CCCCCCCCCCC(CCCCCCCC)C(=O)OCCCCCCN(CCCCO)CCCCCCOC(=O)C(CCCCCCCC)CCCCCCCCCC` (centres unmarked) [Lipid 26]: 0.01252 Fold Change, 0 Fold Change and 0.002759 Fold Change.
For `CCCCCCCCC(CCCCCC)C(=O)OCCCCCCN(CCCCCCOC(=O)C(CCCCCC)CCCCCCCC)CCCC(=O)OCC` (centres unmarked) [Lipid 34] the same measures were 0.4644 Fold Change, 0.2638 Fold Change and 0.2168 Fold Change.
For `CCCCCCCCCCC(CCCCCCCC)C(=O)OCCCCCCN(CCCO)CCCCCCOC(=O)C(CCCCCCCC)CCCCCCCCCC` (centres unmarked) [Lipid 37], in assay [1], the “PHH AVG [Fold Change]” value is on record as 0.2564 Fold Change. In assay [2], the “TCL AVG [Fold Change]” value is reported as 0.0237 Fold Change. Also, the “MYO AVG [Fold Change]” value in assay [3] is reported as 0.03859 Fold Change.
`CCCCCCC(CCCC)C(=O)OCCCCCCN(CCO)CCCCCCOC(=O)C(CCCC)CCCCCC` (centres unmarked) [Lipid 29]: the “PHH AVG [Fold Change]” value in assay [1] came to 0.008274 Fold Change. The “TCL AVG [Fold Change]” value in assay [2] amounted to 0.01096 Fold Change. In assay [3], the “MYO AVG [Fold Change]” value was 0 Fold Change.
On to `CCCCCCCCC(CCCCCC)C(=O)OCCCCCCN(CCCCCCOC(=O)C(CCCCCC)CCCCCCCC)CCCn1ccnc1C` (centres unmarked) [Lipid 10a-27], for which the “splenic immune cells expressing tdTomato” value in the assay with splenic immune cells was “significantly higher myeloid and T cell transfection compared with Lipid 93-S14; also recorded: effective at delivering circular RNAs to many splenic immune cell subsets”.
Consider `CCCCCCC(CCCC)COC(=O)CCCCCCCN(CCCCO)CCCCCCCC(=O)OCC(CCCC)CCCCCC` (centres unmarked) [Lipid 49], for which, in assay [1], the “PHH AVG [Fold Change]” value was found to be 0.6215 Fold Change. In addition, the “TCL AVG [Fold Change]” value in assay [2] is given as 0.07252 Fold Change. In addition, the “MYO AVG [Fold Change]” value in assay [3] came out at 0.1952 Fold Change.
As to `CCCCCCCCC(CCCCCC)C(=O)OCCCCCCN(CCCCCCOC(=O)C(CCCCCC)CCCCCCCC)CCCCOC(C)=O` (centres unmarked) [Lipid 33], in assay [1], the “PHH AVG [Fold Change]” value is recorded as 0.4409 Fold Change. Besides, in assay [2], the “TCL AVG [Fold Change]” value is on record as 0.2088 Fold Change. The “MYO AVG [Fold Change]” value in assay [3] amounted to 0.3574 Fold Change.
For the molecule `CCCCC(CC)C(=O)OCCCCCCCCCN(CCCCO)CCCCCCCCCOC(=O)C(CC)CCCC` (centres unmarked) [Lipid 24], the “PHH AVG [Fold Change]” value in assay [1] is 0.0000246 Fold Change. In addition, the “TCL AVG [Fold Change]” value in assay [2] turned out to be 0.003111 Fold Change. Further, in assay [3], the “MYO AVG [Fold Change]” value was 0 Fold Change.
The matching figures for `CCCCCCCCC(CCCCCC)C(=O)OCCCCCCCCCCCCN(CCCO)CCCCCCCCCCCCOC(=O)C(CCCCCC)CCCCCCCC` (centres unmarked) [Lipid 38]: 0.2209 Fold Change, 0.02186 Fold Change and 0.07838 Fold Change.
As to `CCCCCCCCC(CCCCCC)C(=O)OCCCCCCN(CCCCCCOC(=O)C(CCCCCC)CCCCCCCC)C(CC)CO` (centres unmarked) [Lipid 31], the “PHH AVG [Fold Change]” value in assay [1] is on record as 0.6943 Fold Change. Further, the “TCL AVG [Fold Change]” value in assay [2] was found to be 0.4863 Fold Change. In addition, the “MYO AVG [Fold Change]” value in assay [3] worked out at 0.5881 Fold Change.
Turning to `CCCCCCCCCCCCC(CCCCCCCCCC)C(=O)OCCCCCCN(CCCO)CCCCCCOC(=O)C(CCCCCCCCCC)CCCCCCCCCCCC` (centres unmarked) [Lipid 44], in assay [1], the “PHH AVG [Fold Change]” value is 0.01602 Fold Change. The “TCL AVG [Fold Change]” value in assay [2] is 0.01421 Fold Change. For the same molecule, the “MYO AVG [Fold Change]” value in assay [3] came to 0 Fold Change.
